In US10640545B2 (THE GOVERNORS OF THE UNIVERSITY OF ALBERTA, priority 2017, dated 2020):
One block for each molecule: values may come before it. *1 amine or outer side, *2 acyl side, *3 side chain or, on linkers, in order; H or OH if unused. Where a SMILES comes first, the peptide text is derived from it. [ ]: non-standard residue; d: D form. The star is where a group is joined. Phe(4-Br) = N[C@@H](Cc1ccc(Br)cc1)C(=O)O; azaLeu = CC(C)CN(N[*:1])C(=O)[*:2]; Palmitoyl = CCCCCCCCCCCCCCCC(=O)*; NMeL = CN[C@@H](CC(C)C)C(=O)O; pGlu = O=C1CC[C@@H](C(=O)O)N1; Nle = CCCC[C@H](N)C(=O)O; Aib = CC(C)(N)C(=O)O

Assays:
isolated rat hearts = assay: Langendorff isolated heart, ischemia-reperfusion injury; settings: ex vivo heart, 30 min ischemia, peptide at start of reperfusion for 10 min at 1 pM
Method: The ex vivo heart was assessed for a variety of parameters (heart rate (HR); left ventricle developed pressure (LVDP); maximum derivative of change in systolic pressure over time (max dP/dt); minimum derivative of change in diastolic pressure over time (min dP/dt); and rate-pressure product (RPP)) indicative of general heart function and performance (FIG. 11).
Langendorff heart perfusion and ischemia-reperfusion injury were prepared and cardiac function was measured. Mice were heparinized and anaesthetized with 1.5-2% isoflurane inhalation. The heart was excised, mounted on a Langendorff system, and perfused at a consistent pressure of 80 mmHg with modified Krebs-Henseleit solution (116 mM NaCl, 3.2 mM KCl, 2.0 mM CaCl2), 1.2 mM MgSO4, 25 mM NaHCO3, 1.2 mM KH2PO4, 11 mM glucose, 0.5 mM EDTA and 2 mM pyruvate), which was kept at 37° C. and continuously oxygenated with 95% O2 and 5% CO2 which maintained the perfusion buffer at pH 7.4. After stabilization and 10 min baseline recording, global ischemia was induced for 30 min followed by 40 min of reperfusion. Apelin 17 (2) or apelin peptides (11, 17, 18, or 19) were given at the start of reperfusion for 10 min at a concentration of 1 pM. Left ventricular functions were obtained continuously by PowerLab system (ADInstruments, Australia). Data was reported as mean value of every 5 min. Left ventricular functions were reported as: Left Ventricular Developed Pressure (LVDP); Heart rate (HR); maximum derivative of change in systolic pressure over time (max dP/dt); minimum derivative of change in diastolic pressure over time (min dP/dt); and Rate Pressure Product (RPP).

in vitro = settings: human, plasma
[1] = molecular target: T1, wild-type rat apelin receptor (Rattus norvegicus, UniProt Q9JHG3); assay: Radioligand binding, displacement of [125I]-pyr-1-apelin-13 on CHO cell membranes
T1 construct: expressed in transfected cells
T1 sequence (Q9JHG3 1-377): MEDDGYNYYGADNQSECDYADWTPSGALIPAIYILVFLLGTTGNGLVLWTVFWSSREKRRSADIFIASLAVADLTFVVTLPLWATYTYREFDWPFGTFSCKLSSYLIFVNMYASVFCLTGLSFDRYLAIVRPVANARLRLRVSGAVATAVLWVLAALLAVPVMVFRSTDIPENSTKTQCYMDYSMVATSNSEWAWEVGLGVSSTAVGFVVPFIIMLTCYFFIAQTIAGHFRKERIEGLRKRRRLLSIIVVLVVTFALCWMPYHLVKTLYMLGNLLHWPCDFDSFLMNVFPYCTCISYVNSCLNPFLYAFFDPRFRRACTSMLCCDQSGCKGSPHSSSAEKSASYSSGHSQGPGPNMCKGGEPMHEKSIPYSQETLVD
Method: This experiment evaluated the ability of peptides of the present embodiments to bind to the wild-type rat apelin receptor, in order to examine the impact of synthetic modification within the critical RPRL motif of the apelin peptides.
Membrane preparations from CHO cells stably expressing the wild-type rat apelin receptor-EGFP were prepared as previously described (Gerbier et al., New Structural Insights Into The Apelin Receptor: Identification Of Key Residues For Apelin binding; FASEB J. 2015, 29, 314-322; Iturrioz et. al., Development Of Original Metabolically-Stable Apelin-17 Peptides With Diuretic And Cardiovascular Effects; FASEB J. 2017, 31, 687-700.) Crude membrane preparations (1 μg total mass of membranes/assay) were incubated for 3 h at 20° C. with 0.2 nM [^125I]-pyr-1-apelin-13 (monoiodinated on Lys^8 with Bolton-Hunter reagent, Perkin Elmer, Wellesley, Mass., USA) in binding buffer (50 mM HEPES, 5 mM MgCl2 1149 pH 7.5, BSA 1%) alone or in presence of the different compounds at various concentrations. The reaction was stopped by adding 4 mL of cold binding buffer, filtered on Whatman GF/C filters and washed with 5 mL of cold binding buffer. Radioactivity was then counted using a Wizard 1470 Wallac gamma counter (Perkin Elmer, Turku, Finland). Binding experiment data were analyzed with Graph Pad Prism.

[2] = molecular target: Human plasma kallikrein KLKB1 (Homo sapiens, UniProt P03952); assay: Plasma kallikrein KLKB1 qualitative cleavage assay (MALDI-TOF)
Method: Native apelin-17 (2) and apelin peptides 5, 56, 57, 58 and 59 were dissolved in Milli-Q water (1 mM). Human plasma kallikrein KLKB1 were each reconstituted in Tris buffer (100 mM TrisHCl, 10 mM CaCl2), 150 mM NaCl) and diluted with Tris buffer (50 mM TrisHCl, 250 mM NaCl) to give a KLKB1 concentration of […]. The KLKB1 enzyme was then preincubated at 37° C. for 10 minutes prior to the addition of 5 μL of apelin peptide (1 mM). Aliquots (1 μL) were taken at 1, 2, 4, 6, 12, 24, 36, and 48 hours and analyzed with MALDI-TOF mass spectrometry to qualitatively determine the time point at which degradation products could be observed (Table 4).

[3] = molecular target: T2, KLKB1 (plasma kallikrein) (Homo sapiens, UniProt P03952); assay: In vitro KLKB1 stability (half-life); type: in vitro ADME; settings: human
T2 construct: purchased Novoprotein

neprilysin (NEP) = neprilysin (NEP) (Homo sapiens, UniProt P08473); assay: in vitro; settings: human, pH 7.5
Method: This experiment compared the in vitro NEP stability of the Arg/Leu peptides of the embodiments to native apelin isoforms and their A2 substituted counterparts. Peptides were incubated with recombinant human NEP (rhNEP, Sino Biological) at 37° C. for up to 72 h, and the extent of degradation was analyzed via LC-MS because of the overlapping elution patterns of peptide fragments. […] (McKinnie, S. M. K., et al. ChemBioChem: 17, 1495-1498 (2016)). […] (Dion, N., et al., Biochem. J.: 311, 623-627 (1995); Bateman Jr., R. C., et al., J. Biol. Chem.: 264, 6151-6157 (1989); McMurray, J. J. et al., J. Med.: 371, 993-1004 (2014)).
Apelin peptides were dissolved in Milli-Q water (1 mM). Recombinant human neprilysin (rhNEP, Sino Biological) was reconstituted in Tris buffer (100 mM Tris, 100 mM NaCl, 10 μM ZnCl2, pH 7.5). To initiate the assay, rhNEP was diluted in Tris buffer (3.1 nM final concentration), and preincubated at 37° C. for 10 minutes prior to the addition of 5 μL of apelin peptide (1 mM) and 1.5 μL internal standard dansyl-Tyr-Val-Gly-OH (1 mM). Aliquots (10 μL) were removed at 0, 1, 4, 24, and 72 h, quenched with 0.1 M EDTA (10 μL), diluted to 100 μL with Milli-Q water and analyzed by LC-MS. Assays were performed in triplicate (n=3) for each time point. Integrated peak areas of the parent apelin peptide and internal standard derived from LC-MS analyses, were extracted using Mass Hunter software (version B.04.00) and compared in positive extracted ion count modus (+EIC, extracted-ion chromatogram). […] (apelin:dansyl-YVG), to the same ratio at the different assay time points. The decrease in apelin:dansyl-YVG ratio was converted to a percentage of cleaved peptide over time.
The extent of degradation was analyzed via LC-MS because of the overlapping elution patterns of peptide fragments (NEP).
Native apelin-17 (2) and apelin peptides 5, 54, 56, 57, 58 and 59 were dissolved in Milli-Q water (1 mM). Recombinant human neprilysin (rhNEP, Sino Biological) was reconstituted in Tris buffer (100 mM Tris, 100 mM NaCl, 10 μM ZnCl2, pH 7.5). To initiate the assay, rhNEP was diluted in Tris buffer (3.1 nM final concentration) and preincubated at 37° C. for 10 min prior to the addition of 5 μL of apelin peptide (1 mM) and 1.5 μL of internal standard dansyl-Tyr-Val-Gly-OH (1 mM). Aliquots (10 μL) were removed at 0, 1, 4, 24, and 72 h, quenched with 0.1 M EDTA (10 μL), diluted to 100 μL with Milli-Q water, and analyzed by LC-MS. Assays were performed in triplicate (n=3) for each time point. Integrated peak areas of the parent apelin peptide and internal standard derived from LC-MS analyses were extracted using Mass Hunter software (version B.04.00) and compared in positive extracted ion count modus (+EIC). The extent of proteolysis was determined by comparing the initial (0 h) ratio of the integrated extracted ions of the parent apelin peptide to the internal dansyl-YVG standard (apelin/dansyl-YVG) to the same ratio at the different assay time points. The decrease in apelin/dansyl-YVG ratio was converted to a percentage of cleaved peptide over time.

[4] = system: recombinant human neprilysin (rhNEP, Sino Biological); assay: rhNEP diluted in Tris buffer (100 mM Tris, 100 mM NaCl, 10 μM ZnCl2, pH 7.5), 3.1 nM final concentration; settings: 37° C., up to 72 h

Human plasma kallikrein KLKB1, sequence (P03952 20-638): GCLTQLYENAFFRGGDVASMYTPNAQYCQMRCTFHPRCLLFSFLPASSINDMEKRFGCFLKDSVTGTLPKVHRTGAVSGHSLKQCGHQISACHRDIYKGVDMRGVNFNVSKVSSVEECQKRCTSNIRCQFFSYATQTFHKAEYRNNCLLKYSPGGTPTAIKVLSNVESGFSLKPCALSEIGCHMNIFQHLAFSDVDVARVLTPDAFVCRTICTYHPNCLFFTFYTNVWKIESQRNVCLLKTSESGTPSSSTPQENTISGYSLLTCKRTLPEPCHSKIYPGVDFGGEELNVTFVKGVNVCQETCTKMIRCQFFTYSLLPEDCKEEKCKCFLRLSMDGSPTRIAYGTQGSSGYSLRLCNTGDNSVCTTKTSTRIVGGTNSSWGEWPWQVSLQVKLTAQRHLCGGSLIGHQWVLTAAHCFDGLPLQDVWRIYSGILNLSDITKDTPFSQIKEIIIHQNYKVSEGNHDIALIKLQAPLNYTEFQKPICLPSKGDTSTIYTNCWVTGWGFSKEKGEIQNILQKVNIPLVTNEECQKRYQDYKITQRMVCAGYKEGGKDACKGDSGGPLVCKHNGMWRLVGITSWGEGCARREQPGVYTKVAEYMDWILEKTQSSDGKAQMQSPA
T2 sequence (P03952 20-638): as above
neprilysin (NEP), sequence (P08473 whole entry, the tested form may be a part, canonical isoform): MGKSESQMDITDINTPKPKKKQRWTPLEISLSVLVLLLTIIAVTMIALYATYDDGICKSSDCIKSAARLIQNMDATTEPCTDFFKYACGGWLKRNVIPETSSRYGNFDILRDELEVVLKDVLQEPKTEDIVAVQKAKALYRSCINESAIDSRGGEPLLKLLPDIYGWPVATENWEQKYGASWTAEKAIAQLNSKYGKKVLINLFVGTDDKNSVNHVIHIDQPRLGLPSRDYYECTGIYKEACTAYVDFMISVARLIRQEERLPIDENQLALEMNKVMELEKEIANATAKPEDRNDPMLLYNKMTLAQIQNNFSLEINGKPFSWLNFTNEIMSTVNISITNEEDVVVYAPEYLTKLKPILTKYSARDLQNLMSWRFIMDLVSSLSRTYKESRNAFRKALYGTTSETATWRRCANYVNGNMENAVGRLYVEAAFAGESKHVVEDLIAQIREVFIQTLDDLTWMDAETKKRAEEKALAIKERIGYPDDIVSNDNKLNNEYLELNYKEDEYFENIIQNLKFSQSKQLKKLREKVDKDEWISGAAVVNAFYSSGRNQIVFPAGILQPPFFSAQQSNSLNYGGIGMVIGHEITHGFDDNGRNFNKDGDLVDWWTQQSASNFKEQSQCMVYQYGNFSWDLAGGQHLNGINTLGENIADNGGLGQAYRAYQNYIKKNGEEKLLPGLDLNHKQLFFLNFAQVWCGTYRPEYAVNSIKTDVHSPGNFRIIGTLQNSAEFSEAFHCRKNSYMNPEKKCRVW

- remaining at 0.5 h, 80 µM (in vitro): 19 ± 5%
- remaining at 1 h, 80 µM (in vitro): 2 ± 1%
- Ki ([1]; displacement of [125I]-pyr-1-apelin-13 (0.2 nM), CHO membranes, rat apelin receptor-EGFP, means ± SE, read-out: Affinity Ki): 0.13 ± 0.063 nM
- receptor binding affinity (in words) ([1]; rat apelin receptor): modest improvement in receptor binding
Molecule: CCCC[C@H](NC(=O)[C@@H]1CCCN1C(=O)CNC(=O)[C@H](CCCCN)NC(=O)[C@H](Cc1c[nH]cn1)NC(=O)[C@H](CO)NC(=O)N(CC(C)C)NC(=O)[C@H](CCCNC(=N)N)NC(=O)[C@@H]1CCCN1C(=O)[C@H](CCCNC(=N)N)NC(=O)[C@@H]1CCC(=O)N1)C(=O)NC(C)(C)C(=O)N[C@@H](Cc1ccc(Br)cc1)C(=O)O [Peptide 18, pGlu-Arg-Pro-Arg-azaLeu-Ser-His-Lys-Gly-Pro-Nle-Aib-paraBrPhe] ([pGlu]RPR[azaLeu]SHKGP[Nle][Aib][Phe(4-Br)]-OH; C-terminus assumed)
- ability to rescue the heart from ischemic reperfusion injury (isolated rat hearts): behaved comparably to that of the negative saline control

- Degradation Onset Timepoint with KLKB1 [2]: 2 h
- half-life [3]: 2.1 h
- half-life (neprilysin (NEP)): > 30 h
Molecule: CCCCCCCCCCCCCCCC(=O)N[C@@H](CCCCN)C(=O)N[C@@H](Cc1ccccc1)C(=O)N[C@@H](CCCNC(=N)N)C(=O)N[C@@H](CCCNC(=N)N)C(=O)N[C@@H](CCC(N)=O)C(=O)N[C@@H](CCCNC(=N)N)C(=O)N1CCC[C@H]1C(=O)N[C@@H](CCCNC(=N)N)C(=O)N(C)[C@@H](CC(C)C)C(=O)N[C@@H](CO)C(=O)N[C@@H](Cc1cnc[nH]1)C(=O)N[C@@H](CCCCN)C(=O)NCC(=O)N1CCC[C@H]1C(=O)N[C@@H](CCCC)C(=O)NC(C)(C)C(=O)N[C@@H](Cc1ccc(Br)cc1)C(=O)O [Peptide 58] (Palmitoyl-KFRRQRPR[NMeL]SHKGP[Nle][Aib][Phe(4-Br)]-OH)

- cleaved bond [4]: Nle15-Aib16, minor
Molecule: Lys-Phe-Arg-Arg-Gln-Arg-Pro-Arg-αMeLeu-Ser-His-Lys-Gly-Pro-Nle-Aib-paraBrPhe

- cleaved bond [4]: Nle15-Aib16, minor
Molecule: Lys-Phe-Arg-Arg-Gln-Arg-Pro-αMeArg-Leu-Ser-His-Lys-Gly-Pro-Nle-Aib-paraBrPhe

- cleaved bond [4]: Nle11-Aib12, minor
Molecule: pGlu-Arg-Pro-azaArg-Leu-Ser-His-Lys-Gly-Pro-Nle-Aib-paraBrPhe

- cleaved bond [4]: Nle11-Aib12, minor
Molecule: pGlu-Arg-Pro-αMeArg-Leu-Ser-His-Lys-Gly-Pro-Nle-Aib-paraBrPhe

The remaining lines, values behind:

Molecule: CCCCCCCCCCCCCCCC(=O)N[C@@H](CCCCN)C(=O)N[C@@H](Cc1ccccc1)C(=O)N[C@@H](CCCNC(=N)N)C(=O)N[C@@H](CCCNC(=N)N)C(=O)N[C@@H](CCC(N)=O)C(=O)N[C@@H](CCCNC(=N)N)C(=O)N1CCC[C@H]1C(=O)N[C@@H](CCCNC(=N)N)C(=O)N[C@@H](CC(C)C)C(=O)N[C@@H](CO)C(=O)N[C@@H](Cc1cnc[nH]1)C(=O)N[C@@H](CCCCN)C(=O)NCC(=O)N1CCC[C@H]1C(=O)N[C@@H](CCCC)C(=O)NC(C)(C)C(=O)N[C@@H](Cc1ccc(Br)cc1)C(=O)O [Peptide 56] (Palmitoyl-KFRRQRPRLSHKGP[Nle][Aib][Phe(4-Br)]-OH)
- Degradation Onset Timepoint with KLKB1 [2]: 1 h
- half-life [3]: 1 h
- half-life (neprilysin (NEP)): 1.5 h

Molecule: pGlu-Arg-Pro-Arg-NMeLeu-Ser-His-Lys-Gly-Pro-Nle-Aib-paraBrPhe
- cleaved bond [4]: Nle11-Aib12, minor

Molecule: pGlu-Arg-Pro-Arg-azaLeu-Ser-His-Lys-Gly-Pro-Nle-Aib-paraBrPhe
- cleaved bond [4]: Nle11-Aib12, minor

Molecule: pGlu-Arg-Pro-Arg-αMeLeu-Ser-His-Lys-Gly-Pro-Nle-Aib-paraBrPhe
- cleaved bond [4]: Nle11-Aib12, minor
